Data taken from US11266655B2, “Methods and compositions for treating urea cycle disorders” (Camp4 Therapeutics Corporation, priority 2019, dated 2022).
Where two headings read alike, the source gives them in different places.

How the values were obtained:
[1] = system: SLC25A15; assay: RNA-seq of compound-treated primary human hepatocytes, SLC25A15 expression; format: cell-based; settings: for Relative SLC25A15 level vs Untreated (±Standard Deviation): primary human hepatocytes, triplicate (Table 24, FIG. 16A-B)
[2] = system: CPS1; assay: RNA-seq of compound-treated primary human hepatocytes, CPS1 expression; format: cell-based; settings: primary human hepatocytes; for Relative CPS1 level vs Untreated (±Standard Deviation): triplicate (Table 19, FIG. 11); for CPS1 expression, Fold change (Log 2) vs untreated: RNA-seq
[3] = system: ASS1; assay: RNA-seq of compound-treated primary human hepatocytes, ASS1 expression; format: cell-based; settings: primary human hepatocytes; for Relative ASS1 level vs Untreated (±Standard Deviation): 10 μM, triplicate (Table 15, FIG. 7); for Fold change (Log 2) vs untreated, ASS1 expression: RNA-seq (Table 4)
[4] = system: ARG1; assay: RNA-seq of compound-treated primary human hepatocytes, ARG1 expression; format: cell-based; settings: for Relative ARGI level vs Untreated (±Standard Deviation) / Fold change (Log 2) vs untreated, ARG1 expression: primary human hepatocytes; for Relative ARGI level vs Untreated (±Standard Deviation): triplicate (Table 17, FIG. 9); for Fold change (Log 2) vs untreated, ARG1 expression: RNA-seq (Table 7)
[5] = system: NAGS; format: cell-based, human; settings: primary human hepatocytes, triplicate (Table 21, FIG. 13)
[6] = system: urea cycle genes; assay: RNA-seq of primary human hepatocytes, compounds that modulate multiple urea cycle-related genes; format: cell-based; settings: primary human hepatocytes, RNA-seq; for Up-regulated Genes: urea cycle-related genes significantly increased (Table 10)
[7] = Example 11, relative mRNA vs DMSO

CC(=O)NCC(=O)N1[C@@H]2CC[C@H]1c1ccc(Nc3ncc(C(F)(F)F)c(NC4CCC4)n3)cc12 [PF-3814735]
Relative SLC25A15 level vs Untreated (±Standard Deviation) ([1]; 1 μM): 1.35 ± 0.11 | Relative SLC25A15 level vs Untreated (±Standard Deviation) ([1]; 3 μM): 3.06 ± 0.51 | Relative SLC25A15 level vs Untreated (±Standard Deviation) ([1]; 10 μM): 2.41 ± 0.14 | Increase in SLC25A15 gene expression (qualitative) [1, 7]: greatest increase | Relative CPS1 level vs Untreated (±Standard Deviation) ([2]; 3 μM): 2.25 ± 0.74 | Relative ASS1 level vs Untreated (±Standard Deviation) [3]: 1.56 ± 0.17 | Relative ARGI level vs Untreated (±Standard Deviation) ([4]; 1 μM): 1.44 ± 0.02 | Relative ARGI level vs Untreated (±Standard Deviation) ([4]; 3 μM): 2.45 ± 0.43 | increase in ARG1 gene expression (Tables 17, 18, FIG. 9, 10) [4, 7]: greatest increase

CCN(CC)CCCCNc1ncc2cc(-c3cc(OC)cc(OC)c3)c(NC(=O)NC(C)(C)C)nc2n1 [PD173074]
Relative NAGS level vs Untreated (±Standard Deviation) ([5]; 10 μM): 1.30 ± 0.31 | Relative SLC25A15 level vs Untreated (±Standard Deviation) ([1]; 3 μM): 1.30 ± 0.12 | Relative CPS1 level vs Untreated (±Standard Deviation) ([2]; 3 μM): 1.35 ± 0.03

O=C(NOCCO)c1cc(CN2OCCCC2=O)c(F)c(F)c1Nc1ccc(I)cc1F [Compound R04987655]
Relative CPS1 level vs Untreated (±Standard Deviation) ([2]; 1 μM): 1.46 ± 0.27 | Relative CPS1 level vs Untreated (±Standard Deviation) ([2]; 10 μM): 1.33 ± 0.21

C[C@]12CC[C@H]3[C@@H](CCC4=CC(=O)CC[C@@]43C)[C@@H]1CC[C@@H]2C(=O)CO [Deoxycorticosterone]
CPS1 expression, Fold change (Log 2) vs untreated [2]: 3.79 Log 2 | Fold change (Log 2) vs untreated, ASS1 expression [3]: 0.6 Log 2 | Fold change (Log 2) vs untreated, ARG1 expression [4]: 1.37 Log 2 | number of urea cycle genes whose expression was significantly up-regulated [6]: four | Up-regulated Genes [6]: CPS1, ASS1, ARG1, SLC25A15

O=C(NCCCNc1nc(Nc2cccc(NC(=O)N3CCCC3)c2)ncc1I)c1cccs1 [BX795]
Relative CPS1 level vs Untreated (±Standard Deviation) ([2]; 3 μM): 1.75 ± 1.03 | Relative ARGI level vs Untreated (±Standard Deviation) ([4]; 3 μM): 1.33 ± 0.43 | Relative ARGI level vs Untreated (±Standard Deviation) ([4]; 10 μM): 1.34 ± 0.41

Cc1cc(C(=O)NOCCO)c(Nc2ccc(I)cc2F)n(C)c1=O [AZD8330]
Relative CPS1 level vs Untreated (±Standard Deviation) ([2]; 0.3 μM): 1.33 ± 0.03 | Relative CPS1 level vs Untreated (±Standard Deviation) ([2]; 3 μM): 1.60 ± 0.24

COc1cc2c(Oc3ccc(NC(=O)C4(C(=O)Nc5ccc(F)cc5)CC4)cc3F)ccnc2cc1OCCCN1CCOCC1 [Foretinib]
Relative NAGS level vs Untreated (±Standard Deviation) ([5]; 10 μM): 1.45 ± 0.38 | Relative SLC25A15 level vs Untreated (±Standard Deviation) ([1]; 10 μM): 1.97 ± 0.15 | Relative CPS1 level vs Untreated (±Standard Deviation) ([2]; 3 μM): 1.37 ± 0.30 | Relative CPS1 level vs Untreated (±Standard Deviation) ([2]; 10 μM): 1.75 ± 0.30 | Relative ASS1 level vs Untreated (±Standard Deviation) [3]: 1.82 ± 0.11 | Relative ARGI level vs Untreated (±Standard Deviation) ([4]; 3 μM): 1.40 ± 0.00 | Relative ARGI level vs Untreated (±Standard Deviation) ([4]; 10 μM): 1.61 ± 0.12

S=C(NCc1ccc2c(c1)OCO2)N1CCN(c2ncnc3c2oc2ccccc23)CC1 [Amuvatinib]
Relative CPS1 level vs Untreated (±Standard Deviation) ([2]; 10 μM): 2.07 ± 0.42 | Fold change (Log 2) vs untreated, ASS1 expression [3]: 0.69 Log 2 | Relative ARGI level vs Untreated (±Standard Deviation) ([4]; 10 μM): 1.71 ± 0.19 | Fold change (Log 2) vs untreated, ARG1 expression [4]: 2.5 Log 2 | number of urea cycle genes whose expression was significantly up-regulated [6]: five | Up-regulated Genes [6]: CPS1, ASS1, ASL, OTC, ARG1

NC(=O)c1ccc(I)c([N+](=O)[O-])c1 [Iniparib]
Relative NAGS level vs Untreated (±Standard Deviation) ([5]; 0.3 μM): 1.41 ± 0.00 | Relative CPS1 level vs Untreated (±Standard Deviation) ([2]; 3 μM): 1.44 ± 0.01 | Relative ARGI level vs Untreated (±Standard Deviation) ([4]; 3 μM): 1.32 ± 0.15

B1: GDF10 (BMP3b): member of the BMP family and the TGF-B superfamily (protein, UniProt P55107 369-478, looked up)
Growth/differentiation factor …: QWDEPRVCSRRYLKVDFADIGWNEWIISPKSFDAYYCAGACEFPMPKIVRPSNHATIQSIVRAVGIIPGIPEPCCVPDKMNSLGVLFLDENRNVVLKVYPNMSVDTCACR
CPS1 expression, Fold change (Log 2) vs untreated [2]: 1.66 Log 2
